{"source": "patent US20210059959A1", "about": "“USE OF CANNABINOIDS IN THE TREATMENT OF MENTAL DISORDERS” (GW Pharma Limited, priority 2015, published 2021)", "test_system": "participants with schizophrenia or related psychotic disorder", "test": "Scale for the Assessment of Negative Symptoms (SANS), double-blind placebo-controlled study of CBD as adjunctive therapy", "assay_type": "in vivo, human", "experimental": "Example 1 below describes the use of a highly purified cannabis extract comprising cannabidiol (CBD) in a human clinical trial. Example 1 describes data produced in a double-blind, randomised, placebo-controlled, parallel group study of highly purified CBD as adjunctive therapy in first line treatment of schizophrenia or related psychotic disorder.\nAn eight-week, multi-centre, double-blind, randomised, placebo-controlled, parallel group study was conducted with the aim to determine the efficacy, safety and tolerability of highly purified CBD as adjunctive therapy in first line treatment of schizophrenia or related psychotic disorder.\nThis study evaluated the efficacy of highly purified CBD compared with placebo on the participant's PANSS Total score, ‘P’, ‘N’, ‘G’, SANS and BACS scores.\nChanges from baseline in PANSS scores (Total, ‘P’, ‘N’ and ‘G’), SANS and BACS were recorded at the start of the study (baseline) and at the end of treatment (after 6 weeks treatment with CBD or placebo).\nFor inclusion in the study participants were required to be male or female aged 18 to 65 years, diagnosed with schizophrenia or a related psychotic disorder (such as schizoaffective or schizophreniform disorder) as defined by the Diagnostic and Statistical Manual of Mental Disorders Version 4. Participants must have been treated for a minimum of four-weeks and be on a stable dose of their current antipsychotic medication. […] A PANSS score in excess of 60 infers that the patient has symptoms related to schizophrenia or related disorders.\nThe participants were randomised to one of two treatment groups which each consisted of 39 participants. Treatment was administered as either 5 ml CBD (100 mg/ml) oral solution to be taken twice daily or 5 ml matched placebo oral solution to be taken twice daily.\nScale for the Assessment of Negative Symptoms (SANS)\nSANS assesses five symptom complexes to obtain clinical ratings of negative symptoms in participants with schizophrenia or related psychotic disorder. They are: affective blunting; alogia (impoverished thinking); avolition/apathy; anhedonia/asociality; and disturbance of attention.\nAssessments are conducted on a six-point scale (0=not at all to 5=severe). This scale was measured at each assessment visit (Visit 1-4)", "key": {"[1]": {"settings": "CBD adjunct, 6 weeks, all patients"}, "[2]": {"settings": "CBD adjunct, 6 weeks, patients on amisulpride"}, "[3]": {"settings": "CBD adjunct, 6 weeks, patients on aripiprazole"}, "[4]": {"settings": "CBD adjunct, 6 weeks, patients on olanzapine"}, "[5]": {"settings": "CBD adjunct, 6 weeks, patients on other antipsychotics"}, "[6]": {"settings": "CBD adjunct, 6 weeks, patients on quetiapine"}, "[7]": {"settings": "CBD adjunct, 6 weeks, patients on risperidone"}}, "data": [{"smiles": "C=C(C)[C@@H]1CCC(C)=C[C@H]1c1c(O)cc(CCCCC)cc1O", "note": "[CBD, Cannabidiol]", "values": [{"measurement": "Change in baseline scores, SANS question 15: Impersistence at work or school", "setting": "[1]", "value": "−0.5"}, {"measurement": "Change in baseline scores, SANS question 18: Recreational interests and activity", "setting": "[1]", "value": "−0.6"}, {"measurement": "Change in baseline scores, SANS question 19: Sexual interest and activity", "setting": "[1]", "value": "−0.4"}, {"measurement": "Change in baseline scores, SANS question 20: Ability to feel closeness and intimacy", "setting": "[1]", "value": "−0.3"}, {"measurement": "Change in baseline scores, SANS question 21: Relationships with friends and peers", "setting": "[1]", "value": "−0.3"}, {"measurement": "Change in baseline scores, SANS question 22: Global rating of anhedonia", "setting": "[1]", "value": "−0.3"}, {"measurement": "Change in baseline scores, SANS question 23: Social inattentiveness", "setting": "[1]", "value": "−0.5"}, {"measurement": "Change in baseline scores, SANS question 24: Inattentiveness during mental status testing", "setting": "[1]", "value": "−0.6"}, {"measurement": "Change in baseline scores, SANS question 25: Global rating of attention", "setting": "[1]", "value": "−0.5"}, {"measurement": "Change in baseline scores, SANS sub-scale 4 (anhedonia/asociality)", "setting": "[1]", "value": "−1.9"}, {"measurement": "Change in baseline scores, SANS sub-scale 5 (disturbance of attention)", "setting": "[1]", "value": "−1.6"}, {"measurement": "Change in baseline scores, SANS total score", "setting": "[1]", "value": "−9.5"}, {"measurement": "Change in baseline scores, SANS question 15: Impersistence at work or school", "setting": "[2]", "value": "−0.5"}, {"measurement": "Change in baseline scores, SANS question 18: Recreational interests and activity", "setting": "[2]", "value": 0.0}, {"measurement": "Change in baseline scores, SANS question 19: Sexual interest and activity", "setting": "[2]", "value": 0.0}, {"measurement": "Change in baseline scores, SANS question 20: Ability to feel closeness and intimacy", "setting": "[2]", "value": "−0.1"}, {"measurement": "Change in baseline scores, SANS question 21: Relationships with friends and peers", "setting": "[2]", "value": "−0.1"}, {"measurement": "Change in baseline scores, SANS question 22: Global rating of anhedonia", "setting": "[2]", "value": "−0.1"}, {"measurement": "Change in baseline scores, SANS question 23: Social inattentiveness", "setting": "[2]", "value": "−0.1"}, {"measurement": "Change in baseline scores, SANS question 24: Inattentiveness during mental status testing", "setting": "[2]", "value": "−0.8"}, {"measurement": "Change in baseline scores, SANS question 25: Global rating of attention", "setting": "[2]", "value": 0.0}, {"measurement": "Change in baseline scores, SANS score", "setting": "[2]", "value": "−2.4"}, {"measurement": "Change in baseline scores, SANS sub-scale 4 (anhedonia/asociality)", "setting": "[2]", "value": "−0.1"}, {"measurement": "Change in baseline scores, SANS sub-scale 5 (disturbance of attention)", "setting": "[2]", "value": "−1.0"}, {"measurement": "Change in baseline scores, SANS question 15: Impersistence at work or school", "setting": "[3]", "value": "−0.3"}, {"measurement": "Change in baseline scores, SANS question 18: Recreational interests and activity", "setting": "[3]", "value": "−0.1"}, {"measurement": "Change in baseline scores, SANS question 19: Sexual interest and activity", "setting": "[3]", "value": "−0.1"}, {"measurement": "Change in baseline scores, SANS question 20: Ability to feel closeness and intimacy", "setting": "[3]", "value": 0.0}, {"measurement": "Change in baseline scores, SANS question 21: Relationships with friends and peers", "setting": "[3]", "value": "−0.1"}, {"measurement": "Change in baseline scores, SANS question 22: Global rating of anhedonia", "setting": "[3]", "value": 0.0}, {"measurement": "Change in baseline scores, SANS question 23: Social inattentiveness", "setting": "[3]", "value": "−0.4"}, {"measurement": "Change in baseline scores, SANS question 24: Inattentiveness during mental status testing", "setting": "[3]", "value": "−0.5"}, {"measurement": "Change in baseline scores, SANS question 25: Global rating of attention", "setting": "[3]", "value": "−0.4"}, {"measurement": "Change in baseline scores, SANS score", "setting": "[3]", "value": "−4.7"}, {"measurement": "Change in baseline scores, SANS sub-scale 4 (anhedonia/asociality)", "setting": "[3]", "value": "−0.2"}, {"measurement": "Change in baseline scores, SANS sub-scale 5 (disturbance of attention)", "setting": "[3]", "value": "−1.3"}, {"measurement": "Change in baseline scores, SANS question 15: Impersistence at work or school", "setting": "[4]", "value": "−1.2"}, {"measurement": "Change in baseline scores, SANS question 18: Recreational interests and activity", "setting": "[4]", "value": "−1.3"}, {"measurement": "Change in baseline scores, SANS question 19: Sexual interest and activity", "setting": "[4]", "value": "−1.0"}, {"measurement": "Change in baseline scores, SANS question 20: Ability to feel closeness and intimacy", "setting": "[4]", "value": "−1.0"}, {"measurement": "Change in baseline scores, SANS question 21: Relationships with friends and peers", "setting": "[4]", "value": "−0.6"}, {"measurement": "Change in baseline scores, SANS question 22: Global rating of anhedonia", "setting": "[4]", "value": "−0.8"}, {"measurement": "Change in baseline scores, SANS question 23: Social inattentiveness", "setting": "[4]", "value": "−0.9"}, {"measurement": "Change in baseline scores, SANS question 24: Inattentiveness during mental status testing", "setting": "[4]", "value": "−0.7"}, {"measurement": "Change in baseline scores, SANS question 25: Global rating of attention", "setting": "[4]", "value": "−0.9"}, {"measurement": "Change in baseline scores, SANS score", "setting": "[4]", "value": "−20.5"}, {"measurement": "Change in baseline scores, SANS sub-scale 4 (anhedonia/asociality)", "setting": "[4]", "value": "−4.9"}, {"measurement": "Change in baseline scores, SANS sub-scale 5 (disturbance of attention)", "setting": "[4]", "value": "−2.5"}, {"measurement": "Change in baseline scores, SANS question 18: Recreational interests and activity", "setting": "[5]", "value": "−0.4"}, {"measurement": "Change in baseline scores, SANS question 19: Sexual interest and activity", "setting": "[5]", "value": "−0.3"}, {"measurement": "Change in baseline scores, SANS question 20: Ability to feel closeness and intimacy", "setting": "[5]", "value": "−0.1"}, {"measurement": "Change in baseline scores, SANS question 21: Relationships with friends and peers", "setting": "[5]", "value": "−0.2"}, {"measurement": "Change in baseline scores, SANS question 22: Global rating of anhedonia", "setting": "[5]", "value": "−0.2"}, {"measurement": "Change in baseline scores, SANS question 23: Social inattentiveness", "setting": "[5]", "value": "−0.9"}, {"measurement": "Change in baseline scores, SANS question 24: Inattentiveness during mental status testing", "setting": "[5]", "value": "−1.3"}, {"measurement": "Change in baseline scores, SANS question 25: Global rating of attention", "setting": "[5]", "value": "−0.3"}, {"measurement": "Change in baseline scores, SANS score", "setting": "[5]", "value": "−10.6"}, {"measurement": "Change in baseline scores, SANS sub-scale 4 (anhedonia/asociality)", "setting": "[5]", "value": "−1.2"}, {"measurement": "Change in baseline scores, SANS sub-scale 5 (disturbance of attention)", "setting": "[5]", "value": "−2.5"}, {"measurement": "Change in baseline scores, SANS question 18: Recreational interests and activity", "setting": "[6]", "value": "−1.3"}, {"measurement": "Change in baseline scores, SANS question 19: Sexual interest and activity", "setting": "[6]", "value": "−1.5"}, {"measurement": "Change in baseline scores, SANS question 20: Ability to feel closeness and intimacy", "setting": "[6]", "value": "−0.4"}, {"measurement": "Change in baseline scores, SANS question 21: Relationships with friends and peers", "setting": "[6]", "value": "−0.7"}, {"measurement": "Change in baseline scores, SANS question 22: Global rating of anhedonia", "setting": "[6]", "value": "−1.3"}, {"measurement": "Change in baseline scores, SANS question 23: Social inattentiveness", "setting": "[6]", "value": "−0.6"}, {"measurement": "Change in baseline scores, SANS question 24: Inattentiveness during mental status testing", "setting": "[6]", "value": "−0.9"}, {"measurement": "Change in baseline scores, SANS question 25: Global rating of attention", "setting": "[6]", "value": "−0.5"}, {"measurement": "Change in baseline scores, SANS score", "setting": "[6]", "value": "−10.4"}, {"measurement": "Change in baseline scores, SANS sub-scale 4 (anhedonia/asociality)", "setting": "[6]", "value": "−5.1"}, {"measurement": "Change in baseline scores, SANS sub-scale 5 (disturbance of attention)", "setting": "[6]", "value": "−1.8"}, {"measurement": "Change in baseline scores, SANS question 15: Impersistence at work or school", "setting": "[7]", "value": "−0.3"}, {"measurement": "Change in baseline scores, SANS question 18: Recreational interests and activity", "setting": "[7]", "value": "−0.3"}, {"measurement": "Change in baseline scores, SANS question 19: Sexual interest and activity", "setting": "[7]", "value": 0.0}, {"measurement": "Change in baseline scores, SANS question 20: Ability to feel closeness and intimacy", "setting": "[7]", "value": 0.0}, {"measurement": "Change in baseline scores, SANS question 21: Relationships with friends and peers", "setting": "[7]", "value": "−0.1"}, {"measurement": "Change in baseline scores, SANS question 22: Global rating of anhedonia", "setting": "[7]", "value": "−0.2"}, {"measurement": "Change in baseline scores, SANS question 23: Social inattentiveness", "setting": "[7]", "value": 0.2}, {"measurement": "Change in baseline scores, SANS question 24: Inattentiveness during mental status testing", "setting": "[7]", "value": "−0.1"}, {"measurement": "Change in baseline scores, SANS question 25: Global rating of attention", "setting": "[7]", "value": 0.0}, {"measurement": "Change in baseline scores, SANS score", "setting": "[7]", "value": "−3.6"}, {"measurement": "Change in baseline scores, SANS sub-scale 4 (anhedonia/asociality)", "setting": "[7]", "value": "−0.4"}, {"measurement": "Change in baseline scores, SANS sub-scale 5 (disturbance of attention)", "setting": "[7]", "value": 0.1}, {"measurement": "Change in baseline scores, SANS question 15: Impersistence at work or school: difference", "setting": "CBD vs placebo, all patients, P = 0.0187", "value": "(−0.4)"}]}]}
